Reference: ChEMBL document CHEMBL1140362, “Novel iron-specific fluorescent probes” (Bioorg Med Chem Lett, 2005)
Values joined by “and” are separate entries in the source; they are usually repeats but may differ in a detail not shown here. Equal entries are not always repeated.

Columns and labels:
[1] = The fluorescent suspension followed by time was estimated in the absence of Diehtylenetriamine-penta acetic acid; type: functional
[2] = Permeability parameter across human erythrocyte ghost membrane was determined by using fluorescence intensity of 10 uM in absence of Diethylenetriamine-penta acetic acid (DTPA); type: ADME; details: erythrocytes
Homo sapiens = species: Homo sapiens; assay: The fluorescent suspension followed by time was estimated in the presence of Diehtylenetriamine-penta acetic acid; type: functional
[3] = Permeability parameter across human erythrocyte ghost membrane was determined by using fluorescence intensity of 10 uM in presence of Diethylenetriamine-penta acetic acid (DTPA); type: ADME; details: erythrocytes

| Fluorescence [2] | Fluorescence [3] | SMILES | TIME [1] | TIME (Homo sapiens) |
| --- | --- | --- | --- | --- |
| 127 a.u and 65 a.u | 117 a.u | O=C1NCCn2cc(O)c(=O)cc21 | 0.03 h and 0.0786 h | 0.0353 h |
|  | 252 a.u | Cc1cc2[nH]c(=O)c3cc(=O)c(O)cn3c2cc1C |  | 0.00667 h |
